From ChEMBL document CHEMBL6109137, “Design, Synthesis, Evaluation, and SAR of 5-Phenylisoindoline Derivatives, a Potent Class of Small-Molecule Inhibitors Targeting the Programmed Cell Death-1/Programmed Cell Death-Ligand 1 (PD-1/PD-L1) Interaction” (J Med Chem, 2025)
Calls of active or inactive are those of the source. The rule behind the calls is not given here.

Legend:
[1] = Toxicity in C57BL/6J mouse implanted with mouse MC38 cells assessed as change in ureas level at 40 to 160 mg/kg, IG qd for 7 days; assay type: organism-based; conditions: in vivo, po, 168 h, dose 40-160 mg/kg, time 7 day
[2] = Toxicity in C57BL/6J mouse implanted with mouse MC38 cells assessed as injury in liver at 5 to 20 mg/kg, ip qd for 13 days by H and E staining based analysis; assay type: organism-based; conditions: in vivo, 312 h, dose 5-20 mg/kg, time 13 day
MC-38 [3] = test: Antitumor activity against mouse MC38 cells implanted in C57BL/6J mouse administered intraperitoneally once a day for 13 days; assay type: functional, cell-based; conditions: dose 5-20 mg/kg, route ip, time 13.0 day
[4] = Half life in Sprague-Dawley rat at 1 mg/kg, iv measured for 24 hrs by LC-MS/MS analysis; assay type: ADME, organism-based; conditions: in vivo
[5] = AUC (0 to infinity) in Sprague-Dawley rat at 10 mg/kg, ip measured for 24 hrs by LC-MS/MS analysis; assay type: ADME, organism-based; conditions: in vivo
[6] = Binding affinity to human PD-L1 assessed as dissociation constant by SPR analysis
MC-38 [7] = test: Antitumor activity against mouse MC38 cells implanted in C57BL/6J mouse assessed as increase in ratio of CD8+/CD4+ T cells at 20 mg/kg, ip qd for 13 days by flow cytometry; assay type: functional, organism-based; conditions: time 13.0 day
[8] = Clearance in Sprague-Dawley rat at 1 mg/kg, iv measured for 24 hrs by LC-MS/MS analysis; assay type: ADME, organism-based; conditions: in vivo
[9] = Cmax in Sprague-Dawley rat at 10 mg/kg, ip measured for 24 hrs by LC-MS/MS analysis; assay type: ADME, organism-based; conditions: in vivo
[10] = Toxicity in C57BL/6J mouse implanted with mouse MC38 cells assessed as animal mortality at 5 to 20 mg/kg, ip qd for 13 days; assay type: organism-based; conditions: in vivo, 312 h, dose 5-20 mg/kg, time 13 day
[11] = Toxicity in C57BL/6J mouse implanted with mouse MC38 cells assessed as change in excised body weight at 40 to 160 mg/kg, IG qd for 7 days; assay type: organism-based; conditions: in vivo, po, 168 h, dose 40-160 mg/kg, time 7 day
[12] = AUC (0 to 24 hrs) in Sprague-Dawley rat at 10 mg/kg, ip measured for 24 hrs by LC-MS/MS analysis; assay type: ADME, organism-based; conditions: in vivo
[13] = Toxicity in C57BL/6J mouse implanted with mouse MC38 cells assessed as change in MCHC count at 40 to 160 mg/kg, IG qd for 7 days; assay type: organism-based; conditions: in vivo, po, 168 h, dose 40-160 mg/kg, time 7 day
[14] = Toxicity in C57BL/6J mouse implanted with mouse MC38 cells assessed as change in monocytes count at 40 to 160 mg/kg, IG qd for 7 days; assay type: organism-based; conditions: in vivo, po, 168 h, dose 40-160 mg/kg, time 7 day
[15] = Toxicity in C57BL/6J mouse implanted with mouse MC38 cells assessed as injury in kidney at 5 to 20 mg/kg, ip qd for 13 days by H and E staining based analysis; assay type: organism-based; conditions: in vivo, 312 h, dose 5-20 mg/kg, time 13 day
[16] = Half life in Sprague-Dawley rat at 20 mg/kg, po measured for 24 hrs by LC-MS/MS analysis; assay type: ADME, organism-based; conditions: in vivo
[17] = Toxicity in C57BL/6J mouse implanted with mouse MC38 cells assessed as change in HCT count at 40 to 160 mg/kg, IG qd for 7 days; assay type: organism-based; conditions: in vivo, po, 168 h, dose 40-160 mg/kg, time 7 day
[18] = Toxicity in C57BL/6J mouse implanted with mouse MC38 cells assessed as heart weight ratio at 40 to 160 mg/kg, IG qd for 7 days; assay type: organism-based; conditions: in vivo, po, 168 h, dose 40-160 mg/kg, time 7 day
[19] = Half life in Sprague-Dawley rat at 10 mg/kg, ip measured for 24 hrs by LC-MS/MS analysis; assay type: ADME, organism-based; conditions: in vivo
[20] = Toxicity in C57BL/6J mouse implanted with mouse MC38 cells assessed as change in serum ALT level at 5 to 20 mg/kg, ip qd for 13 days; assay type: organism-based; conditions: in vivo, 312 h, dose 5-20 mg/kg, time 13 day
[21] = Drug uptake in mouse MC38 cells incubated for 48 hrs by LC-MS/MS analysis; assay type: ADME, cell-based; conditions: mc-38, 48 h, dose 1-10 µM
[22] = Toxicity in C57BL/6J mouse implanted with mouse MC38 cells assessed as change in MCH count at 40 to 160 mg/kg, IG qd for 7 days; assay type: organism-based; conditions: in vivo, po, 168 h, dose 40-160 mg/kg, time 7 day
[23] = Clearance in Sprague-Dawley rat at 10 mg/kg, ip measured for 24 hrs by LC-MS/MS analysis; assay type: ADME, organism-based; conditions: in vivo
[24] = Stability in human plasma at 1 mM measured up to 7 hrs by HPLC analysis; assay type: ADME, cell-free; conditions: 1000 µM
[25] = Toxicity in C57BL/6J mouse implanted with mouse MC38 cells assessed as change in heart index at 5 to 20 mg/kg, ip qd for 13 days; assay type: organism-based; conditions: in vivo, 312 h, dose 5-20 mg/kg, time 13 day
[26] = AUC (0 to 24 hrs) in Sprague-Dawley rat at 20 mg/kg, po measured for 24 hrs by LC-MS/MS analysis; assay type: ADME, organism-based; conditions: in vivo
MC-38 [27] = test: Antitumor activity against mouse MC38 cells implanted in C57BL/6J mouse at 5 to 20 mg/kg, ip qd; assay type: functional, organism-based; conditions: dose 5-20 mg/kg, time 13.0 day
MC-38 [28] = test: Antitumor activity against mouse MC38 cells implanted in C57BL/6J mouse assessed as tumor growth inhibition at 160 mg/kg, IG qd; assay type: functional, organism-based; conditions: time 7.0 day
[29] = Toxicity in C57BL/6J mouse implanted with mouse MC38 cells assessed as change in liver index at 5 to 20 mg/kg, ip qd for 13 days; assay type: organism-based; conditions: in vivo, 312 h, dose 5-20 mg/kg, time 13 day
[30] = Cytotoxicity against mouse MC38 cells measured after 48 hrs by MTT assay; assay type: toxicity, cell-based, MC-38
[31] = Toxicity in C57BL/6J mouse implanted with mouse MC38 cells assessed as change in CREA-SOX level at 40 to 160 mg/kg, IG qd for 7 days; assay type: organism-based; conditions: in vivo, po, 168 h, dose 40-160 mg/kg, time 7 day
[32] = Toxicity in C57BL/6J mouse implanted with mouse MC38 cells assessed as brain weight ratio at 40 to 160 mg/kg, IG qd for 7 days; assay type: organism-based; conditions: in vivo, po, 168 h, dose 40-160 mg/kg, time 7 day
[33] = Clearance in Sprague-Dawley rat at 20 mg/kg, po measured for 24 hrs by LC-MS/MS analysis; assay type: ADME, organism-based; conditions: in vivo
Mus musculus = test: Restoration of immune function in C57BL/6J mouse implanted with mouse MC38 cells assessed as increase in serum IL-2 level administered intraperitoneally once daily for 13 days by ELISA; assay type: functional, organism-based; conditions: dose 5-20 mg/kg, route ip, time 13.0 day
[34] = Toxicity in C57BL/6J mouse implanted with mouse MC38 cells assessed as liver weight ratio at 40 to 160 mg/kg, IG qd for 7 days; assay type: organism-based; conditions: in vivo, po, 168 h, dose 40-160 mg/kg, time 7 day
[35] = Toxicity in C57BL/6J mouse implanted with mouse MC38 cells assessed as change in lung index at 5 to 20 mg/kg, ip qd for 13 days; assay type: organism-based; conditions: in vivo, 312 h, dose 5-20 mg/kg, time 13 day
[36] = Toxicity in C57BL/6J mouse implanted with mouse MC38 cells assessed as change in kidney index at 5 to 20 mg/kg, ip qd for 13 days; assay type: organism-based; conditions: in vivo, 312 h, dose 5-20 mg/kg, time 13 day
[37] = Toxicity in C57BL/6J mouse implanted with mouse MC38 cells assessed as change in PCT count at 40 to 160 mg/kg, IG qd for 7 days; assay type: organism-based; conditions: in vivo, po, 168 h, dose 40-160 mg/kg, time 7 day
[38] = Cmax in Sprague-Dawley rat at 20 mg/kg, po measured for 24 hrs by LC-MS/MS analysis; assay type: ADME, organism-based; conditions: in vivo
MC-38 [39] = test: Inhibition of PD-L1-induced cell migration in mouse MC38 cells at 5 uM measured up to 24 hrs by scratch assay; assay type: functional, cell-based

C[C@H](N)C(=O)N1Cc2ccc(-c3cccc(-c4ccc5c(c4)OCCO5)c3Cl)cc2C1.Cl
Activity [1]: Non-toxic | Activity [2]: Non-toxic | Activity (MC-38 [3]): Dose-dependent-effect | half-life [4]: 1.61 h | AUC(0-inf) [5]: 1620 ng·h/mL | Kd [6]: 0.23 µM | Activity (MC-38 [7]): Active | clearance [8]: 87.7 mL/min/kg | Cmax [9]: 412 ng/mL | Activity [10]: Non-toxic | Activity [11]: Non-toxic | AUC(0-t) at 24 h [12]: 1010 ng·h/mL | Activity [13]: Non-toxic | Activity [14]: Non-toxic | Activity [15]: Non-toxic | half-life [16]: 3.58 h | Activity [17]: Non-toxic | Activity [18]: Non-toxic | half-life [19]: 4.02 h | Activity [20]: Non-toxic | Drug uptake [21]: Dose-dependent-effect | Activity [22]: Non-toxic | CL/F [23]: 103 mL/min/kg | Stability [24]: Stable | Activity [25]: Non-toxic | AUC(0-t) at 24 h [26]: 467 ng·h/mL | Activity (MC-38 [27]): Time-dependent-effect | inhibition (MC-38 [28]): Time-dependent-effect | Activity [29]: Non-toxic | IC50 at 48 h [30]: 12 µM | Activity [31]: Non-toxic | Activity [32]: Non-toxic | CL/F [33]: 401 mL/min/kg | Activity (Mus musculus): Dose-dependent-effect | Activity [34]: Non-toxic | Activity [35]: Non-toxic | Activity [36]: Non-toxic | Activity [37]: Non-toxic | Cmax [38]: 151 ng/mL | inhibition (MC-38 [39]): Active
